We go through three compounds from US8455523B2, “Compositions and methods for treating hyperlipidemias” (The Research Foundation of State University of New York, priority 2010, dated 2013).

Molecules are shown by their SMILES.

In test [1] the test system is hepatic mRNA of ER stress, inflammation and lipid metabolism genes. The test is described as follows: Hepatic mRNA quantification (qPCR, XBP-1 splicing) in treated mice. It is filed as in vivo. The conditions noted are these: liver; for Bip, Ire1α, CHOP, PERK and ATF6 mRNA levels: BMS MTPi one week, lovastatin or pioglitazone with MTPi. An excerpt:
FIGS. 6a and 6b. Liver samples from FIG. 16 were used to isolate total mRNA and to quantify expression of different candidate genes. Statistical analyses were as described in FIGS. 16-17.
FIGS. 9a and 9b. C57B/6J mice were fed a western diet for 8 weeks and then treated with MTP inhibitor and other indicated compounds for 8 days as described in FIG. 16. Liver samples were used to isolate mRNA and to quantify mRNA levels with different candidate genes. Stars on MTPi group represent comparison with the control group.
FIG. 16. Age matched wildtype C57/BL6J animals chow fed animals were treated with DMSO (control) or MTP inhibitor (MTPi) for one week. Age matched wildtype C57/BL6J were fed WD for one month and were administered MTPi, Lovastatin, (Lova), Pioglitazone (Pio) or 4-phenylbutyric acid (PBA) every day for one week. All drugs were administered by oral gavage. Animals were sacrificed on day 7 and livers were harvested. mRNA was extracted and subjected to qPCR analysis. * represent comparison DMSO control; # represent comparisons to WD control; @ represent comparisons to WD MTP inhibitor treated animals.
mRNA quantifications and primers used: Total RNA from tissues and cells were isolated using TriZol™ (Invitrogen). The purity and integrity of RNA were assessed by the A260/A280 ratio and 1% agarose gel electrophoresis, respectively. Only the RNAs with ratios more than 1.7 were used for cDNA synthesis. The first strand cDNA was synthesized using Omniscript RT (Qiagen) kit. Briefly, 2 μg of total RNA, 1 μM random primers (Invitrogen), 0.5 mM dNTP solution, and 0.5 U/μl Omniscript Reverse Transcriptase were incubated at 37° C. for 1 h in 20 μl of RT buffer and the reaction was terminated by incubating at 95° C. for 5 minutes. Each reaction of quantitative RT-PCR was carried out in a volume of 20 μl consisting of 5 μl cDNA sample (1:100 dilution of the first strand cDNA sample) and 15 μl of PCR master mix solution containing 1×PCR reaction buffer, 6 mM MgCl2, 200 nM primer pair, 0.025 U/μl HotStar Gold™ DNA polymerase, 200 μM dNTP solution, and 0.3 μl SYBR Green I solution (gPCR™ Core Kit for SYBR Green I, Eurogentec). The PCR was carried out by incubating the reaction mixture first for 10 minute at 95° C. followed by 40 cycles of 15 sec incubations at 95° C. and 1 min at 60° C. in the ABI 7000 SDS PCR machine. The data were analyzed using ΔΔCT method according to manufacturer's instruction and presented as arbitrary units. The primers used in this study were designed with the PrimerExpress 3.0 software (Applied Biosystems, CA) and are presented as Table 1.

The target of test [2] is T1, MTP (Mus musculus, UniProt O08601).
T1 construct: small pieces (0.1 g) of liver and ˜1-cm segments of proximal small intestine were homogenized; from tissue; host or cells: mouse liver (C57BL/6J; Reversa mice in some experiments); supernatant of ultracentrifuged homogenate
T1 sequence (O08601 22-894): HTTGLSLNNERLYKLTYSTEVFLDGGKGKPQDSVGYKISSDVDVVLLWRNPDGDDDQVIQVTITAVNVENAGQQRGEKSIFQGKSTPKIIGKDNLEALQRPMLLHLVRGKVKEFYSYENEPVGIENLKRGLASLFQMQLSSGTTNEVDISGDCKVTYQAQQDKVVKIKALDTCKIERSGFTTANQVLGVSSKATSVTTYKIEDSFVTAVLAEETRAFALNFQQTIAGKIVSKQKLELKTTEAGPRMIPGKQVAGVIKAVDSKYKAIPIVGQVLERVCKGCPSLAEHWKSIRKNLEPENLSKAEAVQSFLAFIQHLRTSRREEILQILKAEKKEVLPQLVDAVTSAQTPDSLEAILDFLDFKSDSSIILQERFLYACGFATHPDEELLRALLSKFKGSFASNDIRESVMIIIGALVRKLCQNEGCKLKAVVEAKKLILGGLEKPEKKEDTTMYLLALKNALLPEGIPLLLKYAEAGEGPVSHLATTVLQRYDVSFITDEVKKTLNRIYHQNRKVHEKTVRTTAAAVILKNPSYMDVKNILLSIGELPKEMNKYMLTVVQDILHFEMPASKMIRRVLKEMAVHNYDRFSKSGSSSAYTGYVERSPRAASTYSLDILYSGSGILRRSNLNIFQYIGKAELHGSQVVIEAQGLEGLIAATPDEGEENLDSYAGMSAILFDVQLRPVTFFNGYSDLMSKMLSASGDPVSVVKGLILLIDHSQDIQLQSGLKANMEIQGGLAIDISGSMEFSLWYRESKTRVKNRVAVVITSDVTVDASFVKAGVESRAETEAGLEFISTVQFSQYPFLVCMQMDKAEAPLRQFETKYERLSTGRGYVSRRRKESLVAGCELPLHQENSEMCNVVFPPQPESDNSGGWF
T1 sequence (P09103 21-509 partner limits assumed): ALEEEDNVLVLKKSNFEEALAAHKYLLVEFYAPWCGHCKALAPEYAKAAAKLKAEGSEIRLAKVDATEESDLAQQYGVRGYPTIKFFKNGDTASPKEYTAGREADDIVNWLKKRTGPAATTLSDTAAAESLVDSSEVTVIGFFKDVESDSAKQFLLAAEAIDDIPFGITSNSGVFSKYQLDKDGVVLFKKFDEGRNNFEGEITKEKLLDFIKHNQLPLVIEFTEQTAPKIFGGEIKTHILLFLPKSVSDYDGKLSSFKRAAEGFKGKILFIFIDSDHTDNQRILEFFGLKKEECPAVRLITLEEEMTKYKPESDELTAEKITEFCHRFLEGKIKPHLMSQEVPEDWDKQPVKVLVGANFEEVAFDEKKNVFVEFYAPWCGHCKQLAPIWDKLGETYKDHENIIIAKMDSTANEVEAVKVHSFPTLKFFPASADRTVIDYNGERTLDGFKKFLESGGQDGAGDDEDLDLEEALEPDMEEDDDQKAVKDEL
Put plainly: Determination of MTP activity in tissues (liver homogenates of treated mice). The format is in vivo. As to conditions: for MTP activity (liver): C57Bl/6J, MTPi 1 mg/kg/day oral one week, lovastatin 50 or pioglitazone 25 mg/kg/day added to MTPi; for MTP specific activity (liver): WD fed C57Bl/6J, drug alone, one week. As for the experimental part: After extensive washes with ice-cold PBS, small pieces (0.1 g) of liver and ˜1-cm segments of proximal small intestine were homogenized with 1 ml of ice-cold 1 mM Tris-HCl, pH 7.6, 1 mM EGTA, and 1 mM MgCl2 buffer in a glass homogenizer. The homogenates were centrifuged (SW55 Ti rotor, 50,000 rpm, 10° C., 1 h), and supernatants were used for MTP assay as described before (41; 42) using a kit (Chylos, Inc.).

The mark [3] stands for this setting: WD five weeks, treatment in last week, MTPi ± pioglitazone or lovastatin.
Setting [4] is: WD 8 weeks, CP-346086 1 week ± lovastatin or WY14643.

`CCc1ccc(CCOc2ccc(CC3SC(=O)NC3=O)cc2)nc1` (racemic) [pioglitazone, (RS)-5-(4-[2-(5-ethylpyridin-2-yl)ethoxy]benzyl)thiazolidine-2,4-dione]: the “Bip, Ire1α, CHOP, PERK and ATF6 mRNA levels” value in test [1] is reported as “significantly lower”. In test [2], the “MTP activity (liver)” value is on record as “not further affected” and the “MTP specific activity (liver)” value is given as “no effect”. Besides, the “hepatic MTP activity” value in test [2] (setting [3]) is “unaffected”.

For the compound `Cc1cccc(Nc2cc(Cl)nc(SCC(=O)O)n2)c1C` [WY14643], the “Ire1α mRNA and spliced form of XBP-1” value in test [1] (WD 8 weeks, CP-346086 ± lovastatin or WY14643, 8 days) was “no effect”. For the same compound, the “hepatic MTP activity” value in test [2] (setting [4]) was “no further effect”.

Consider `CC[C@H](C)C(=O)O[C@H]1C[C@@H](C)C=C2C=C[C@H](C)[C@H](CC[C@@H]3C[C@@H](O)CC(=O)O3)[C@H]21` [lovastatin], for which, in test [1], the “Bip, Ire1α, CHOP, PERK and ATF6 mRNA levels” value is “significantly lower”. In addition, in test [2], the “MTP activity (liver)” value is on record as “not further affected” and the “MTP specific activity (liver)” value is given as “no effect”. Moreover, in test [2] (setting [4]), the “hepatic MTP activity” value is “no further effect”. Also, the “hepatic MTP activity” value in test [2] (setting [3]) is listed as “unaffected”.
